# According to publication PMC4767422, “Molecular insights into the enzymatic diversity of flavin‐trafficking protein (Ftp; formerly ApbE) in flavoprotein biogenesis in the bacterial periplasm” (MicrobiologyOpen, 2015):
# Where a chain is given by its changes, count along the chain named.
# Columns and labels:
# Ftp_Ec [1] = molecular target: T1, Ftp_Ec (Escherichia coli, UniProt P0AB85, Y79N); test: crystal structure, […]-1.[…] A; also inhibits FAD pyrophosphatase activity; format: binding; conditions: two Mg2+ bound; active site
# T1 construct: gene apbE; recombinant, ligand-free preparation as in Deka et al. 2013a; signal peptide removed; crystal model residues about 12-341
# T1 sequence (P0AB85 21-351 Y79N): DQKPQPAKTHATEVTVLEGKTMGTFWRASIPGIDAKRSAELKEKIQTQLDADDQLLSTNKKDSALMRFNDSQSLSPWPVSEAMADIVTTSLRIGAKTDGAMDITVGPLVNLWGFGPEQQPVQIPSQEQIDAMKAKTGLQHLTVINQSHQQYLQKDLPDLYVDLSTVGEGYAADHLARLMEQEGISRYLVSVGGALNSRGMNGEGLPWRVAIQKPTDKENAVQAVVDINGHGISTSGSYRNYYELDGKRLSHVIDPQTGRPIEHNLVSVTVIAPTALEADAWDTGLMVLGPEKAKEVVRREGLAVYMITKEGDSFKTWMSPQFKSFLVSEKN
# Ftp_Ab = molecular target: T2, Ftp_Ab (Alcanivorax borkumensis, UniProt Q0VQR2); test: UV-visible spectrum of protein as isolated; format: binding; conditions: co-purified flavin, nonstoichiometric; buffer A, pH 7.5
# T2 construct: gene apbE; residues 21-338, signal peptide and acylated Cys removed, N-terminal TEV-cleavable His6 tag (pSpeedET), E. coli
# T2 sequence (Q0VQR2 20-337): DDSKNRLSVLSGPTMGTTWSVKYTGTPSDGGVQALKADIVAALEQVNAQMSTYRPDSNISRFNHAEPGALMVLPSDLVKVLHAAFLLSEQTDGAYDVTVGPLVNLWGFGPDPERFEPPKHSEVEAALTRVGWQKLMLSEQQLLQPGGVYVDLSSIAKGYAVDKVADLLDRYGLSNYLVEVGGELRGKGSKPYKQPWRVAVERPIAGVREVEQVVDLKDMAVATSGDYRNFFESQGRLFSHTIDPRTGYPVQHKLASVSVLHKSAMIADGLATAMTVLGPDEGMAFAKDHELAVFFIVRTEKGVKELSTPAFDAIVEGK
# Ftp_Ef = molecular target: T3, Ftp_Ef (Enterococcus faecalis, UniProt Q82Z24); test: FAD pyrophosphatase assay, FMN fluorescence; format: biochemical; conditions: 10 uM FAD, 5 mM MgCl2, pH 7.5; single turnover
# T3 construct: gene EF_3255; residues 21-356, signal peptide and acylated Cys removed, N-terminal TEV-cleavable His6 tag (pSpeedET), E. coli
# T3 sequence (Q82Z24 22-355): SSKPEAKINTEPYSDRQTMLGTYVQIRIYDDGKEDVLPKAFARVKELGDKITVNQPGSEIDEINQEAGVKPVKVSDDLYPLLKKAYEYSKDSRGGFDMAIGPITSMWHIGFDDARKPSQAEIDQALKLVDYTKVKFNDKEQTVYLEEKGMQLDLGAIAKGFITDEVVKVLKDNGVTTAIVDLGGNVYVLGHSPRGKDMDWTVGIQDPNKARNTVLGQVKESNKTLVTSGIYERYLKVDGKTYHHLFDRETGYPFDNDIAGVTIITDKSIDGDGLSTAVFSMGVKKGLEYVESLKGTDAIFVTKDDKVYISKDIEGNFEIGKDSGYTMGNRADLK
# Ftp_Ec [2] = molecular target: T4, Ftp_Ec (Escherichia coli, UniProt P0AB85); test: fluorescence decrease on FAD binding; flavinylation gel; format: biochemical; conditions: binds FAD without hydrolysis; FMN donor to RnfG_Ec with 5 mM MgCl2, pH 7.5
# T4 construct: gene apbE; recombinant, ligand-free preparation as in Deka et al. 2013a; signal peptide removed; crystal model residues about 12-341
# T4 sequence (P0AB85 21-351): T1 sequence (P0AB85 21-351 Y79N) with N59Y
# Ftp_Hd = molecular target: T5, Ftp_Hd ([Haemophilus] ducreyi, UniProt Q7VNU3); test: UV-visible spectrum of protein as isolated; format: binding; conditions: co-purified flavin, nonstoichiometric; buffer A, pH 7.5
# T5 construct: gene apbE; residues 17-343, signal peptide and acylated Cys removed, N-terminal TEV-cleavable His6 tag (pSpeedET), E. coli
# T5 sequence (Q7VNU3 16-342): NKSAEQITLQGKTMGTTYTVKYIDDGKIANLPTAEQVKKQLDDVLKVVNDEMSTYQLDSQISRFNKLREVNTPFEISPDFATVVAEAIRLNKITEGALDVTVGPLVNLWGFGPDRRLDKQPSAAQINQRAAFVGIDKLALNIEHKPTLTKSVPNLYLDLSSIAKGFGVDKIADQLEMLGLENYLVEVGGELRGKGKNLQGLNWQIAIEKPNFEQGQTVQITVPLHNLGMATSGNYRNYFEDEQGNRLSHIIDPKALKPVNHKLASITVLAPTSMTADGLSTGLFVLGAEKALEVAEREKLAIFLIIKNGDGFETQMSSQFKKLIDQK
# Ftp_Td = molecular target: T6, Ftp_Td (Treponema denticola, UniProt Q73JG1); test: FAD pyrophosphatase assay, FMN fluorescence; format: biochemical; conditions: 10 uM FAD, 5 mM MgCl2, pH 7.5; single turnover
# T6 construct: gene TDE_2614; residues 28-372, signal peptide and acylated Cys removed, N-terminal TEV-cleavable His6 tag (pSpeedET), E. coli
# T6 sequence (Q73JG1 28-371): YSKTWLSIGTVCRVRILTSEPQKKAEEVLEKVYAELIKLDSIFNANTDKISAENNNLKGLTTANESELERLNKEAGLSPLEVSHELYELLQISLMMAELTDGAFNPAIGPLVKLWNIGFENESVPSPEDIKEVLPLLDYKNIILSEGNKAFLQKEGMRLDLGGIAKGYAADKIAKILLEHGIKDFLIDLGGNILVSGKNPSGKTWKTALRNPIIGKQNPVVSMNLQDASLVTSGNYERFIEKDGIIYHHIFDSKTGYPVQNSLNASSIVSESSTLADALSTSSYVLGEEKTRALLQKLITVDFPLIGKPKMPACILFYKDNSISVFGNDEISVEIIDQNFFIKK
# Ftp_Lm = molecular target: T7, Ftp_Lm (Listeria monocytogenes, UniProt A0A0H3GJF7); test: FAD pyrophosphatase assay, FMN fluorescence; format: biochemical; conditions: 10 uM FAD, 5 mM MgCl2, pH 7.5; single turnover
# T7 construct: gene LMRG_02181; residues 22-361, signal peptide and acylated Cys removed, N-terminal TEV-cleavable His6 tag (pSpeedET), E. coli
# T7 sequence (A0A0H3GJF7 21-360): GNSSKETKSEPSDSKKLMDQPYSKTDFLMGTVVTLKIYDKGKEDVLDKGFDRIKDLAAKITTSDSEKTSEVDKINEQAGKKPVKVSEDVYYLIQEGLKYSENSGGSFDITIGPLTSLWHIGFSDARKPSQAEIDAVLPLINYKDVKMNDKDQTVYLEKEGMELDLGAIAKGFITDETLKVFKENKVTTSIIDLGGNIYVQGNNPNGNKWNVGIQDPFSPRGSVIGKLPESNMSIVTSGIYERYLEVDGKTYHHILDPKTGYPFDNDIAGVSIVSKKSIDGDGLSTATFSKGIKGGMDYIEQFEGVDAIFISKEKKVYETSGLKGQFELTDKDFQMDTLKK
# NqrC_So = molecular target: T8, NqrC_So (Shewanella oneidensis, UniProt Q8EID8); test: crystal structure, […] A; format: binding; conditions: covalent phosphoester-threonyl-FMN at T225, formed in vitro by Ftp_So from FAD and Mg2+
# T8 construct: gene nqrC; residues 32-265, without N-terminal membrane anchor; recloned into pProEx HTb; His tag cut with TEV after flavinylation
# T8 sequence (Q8EID8 32-264): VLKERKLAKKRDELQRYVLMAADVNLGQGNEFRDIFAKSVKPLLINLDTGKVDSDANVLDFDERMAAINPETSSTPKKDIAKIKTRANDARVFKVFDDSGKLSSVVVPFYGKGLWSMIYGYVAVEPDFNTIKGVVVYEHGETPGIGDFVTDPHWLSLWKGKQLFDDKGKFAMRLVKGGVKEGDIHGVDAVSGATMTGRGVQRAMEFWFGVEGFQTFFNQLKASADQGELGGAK
smiles,measurement,setting,value
Nc1ncnc2c1ncn2[C@@H]1O[C@H](COP(=O)(O)OP(=O)(O)O)[C@@H](O)[C@H]1O [ADP],"crystal structure, 1.85-1.90 A; also inhibits FAD pyrophosphatase activity",Ftp_Ec [1],we obtained a crystal structure of the ADP complex with two metals bound
Cc1cc2nc3c(=O)[nH]c(=O)nc-3n(C[C@H](O)[C@H](O)[C@H](O)COP(=O)(O)OP(=O)(O)OC[C@H]3O[C@@H](n4cnc5c(N)ncnc54)[C@H](O)[C@@H]3O)c2cc1C [FAD],UV-visible spectrum of protein as isolated,Ftp_Ab,"purified as yellow, flavin‐bound forms (holoproteins)"
same,"FAD pyrophosphatase assay, FMN fluorescence",Ftp_Ef,all nonyellow Ftps showed single‐turnover kinetics of FAD pyrophosphatase activity
same,fluorescence decrease on FAD binding; flavinylation gel,Ftp_Ec [2],wild‐type Ftp_Ec (in orange) binds FAD as demonstrated by a decrease in the emission fluorescence
same,UV-visible spectrum of protein as isolated,Ftp_Hd,"purified as yellow, flavin‐bound forms (holoproteins)"
same,"FAD pyrophosphatase assay, FMN fluorescence",Ftp_Td,all nonyellow Ftps showed single‐turnover kinetics of FAD pyrophosphatase activity
same,"FAD pyrophosphatase assay, FMN fluorescence",Ftp_Lm,all nonyellow Ftps showed single‐turnover kinetics of FAD pyrophosphatase activity
Cc1cc2nc3c(=O)[nH]c(=O)nc-3n(C[C@H](O)[C@H](O)[C@H](O)COP(=O)(O)O)c2cc1C [FMN],"crystal structure, 1.76 A",NqrC_So,The modified threonine (T225) lies at the N‐terminal end of the C‐terminal alpha helix
